Biological target: ATP-binding cassette sub-family C member 2 (Rattus norvegicus, UniProt Q63120)
Test: TP_TRANSPORTER: efflux in isolated rat hepatocytes (Wistar/TR-)
Assay type: functional, cell-based, Hepatocyte

ATP-binding cassette sub-family C member 2, sequence (Q63120 whole entry): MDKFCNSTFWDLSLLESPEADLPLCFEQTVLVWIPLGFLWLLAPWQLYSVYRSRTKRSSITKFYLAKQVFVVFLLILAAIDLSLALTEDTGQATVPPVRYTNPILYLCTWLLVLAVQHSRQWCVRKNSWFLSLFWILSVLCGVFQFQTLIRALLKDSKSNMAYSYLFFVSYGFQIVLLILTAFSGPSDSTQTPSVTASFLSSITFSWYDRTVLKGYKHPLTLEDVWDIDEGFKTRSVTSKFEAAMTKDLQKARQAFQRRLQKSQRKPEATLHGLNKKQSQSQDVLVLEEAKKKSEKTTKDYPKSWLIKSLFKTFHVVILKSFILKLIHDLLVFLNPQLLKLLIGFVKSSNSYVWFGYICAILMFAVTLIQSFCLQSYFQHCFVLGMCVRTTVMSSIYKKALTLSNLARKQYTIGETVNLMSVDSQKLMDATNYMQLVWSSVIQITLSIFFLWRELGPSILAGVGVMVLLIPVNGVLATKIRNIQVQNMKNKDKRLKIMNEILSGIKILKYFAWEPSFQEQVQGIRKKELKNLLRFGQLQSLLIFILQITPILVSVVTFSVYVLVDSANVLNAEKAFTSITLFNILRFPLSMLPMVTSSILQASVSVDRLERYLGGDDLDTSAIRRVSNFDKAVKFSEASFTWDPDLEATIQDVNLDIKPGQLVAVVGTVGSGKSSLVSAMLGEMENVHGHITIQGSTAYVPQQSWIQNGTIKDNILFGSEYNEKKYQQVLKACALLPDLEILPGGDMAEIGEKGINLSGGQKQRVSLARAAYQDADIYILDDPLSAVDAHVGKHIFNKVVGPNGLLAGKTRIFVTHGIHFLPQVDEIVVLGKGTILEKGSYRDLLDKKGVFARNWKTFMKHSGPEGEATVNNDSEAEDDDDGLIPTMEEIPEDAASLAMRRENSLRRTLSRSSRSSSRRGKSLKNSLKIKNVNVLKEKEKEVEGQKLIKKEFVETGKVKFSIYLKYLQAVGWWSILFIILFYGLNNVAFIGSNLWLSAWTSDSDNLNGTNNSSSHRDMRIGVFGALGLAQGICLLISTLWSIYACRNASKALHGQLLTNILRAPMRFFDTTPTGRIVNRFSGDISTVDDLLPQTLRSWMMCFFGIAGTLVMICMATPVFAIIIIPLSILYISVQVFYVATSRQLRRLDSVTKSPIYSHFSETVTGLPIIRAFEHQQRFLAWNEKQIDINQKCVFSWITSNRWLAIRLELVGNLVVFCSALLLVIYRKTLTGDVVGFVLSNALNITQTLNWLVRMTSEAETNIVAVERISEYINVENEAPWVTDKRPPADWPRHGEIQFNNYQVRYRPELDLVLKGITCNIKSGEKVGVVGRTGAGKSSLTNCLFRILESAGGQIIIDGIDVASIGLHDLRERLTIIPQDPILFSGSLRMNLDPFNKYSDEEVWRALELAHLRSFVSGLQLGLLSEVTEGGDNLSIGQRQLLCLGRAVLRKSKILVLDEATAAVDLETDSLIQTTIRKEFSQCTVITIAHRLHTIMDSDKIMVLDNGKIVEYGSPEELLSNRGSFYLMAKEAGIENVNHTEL

CCCCCC1OC(O)CC1SC[C@H](NC(=O)CC[C@H](N)C(=O)O)C(=O)NCC(=O)O (stereo partly specified)
Activity: substrate []

Source: ChEMBL document CHEMBL2074224, “Characterization of multidrug resistance-associated protein 2 in the hepatocellular disposition of 4-hydroxynonenal” (Arch Biochem Biophys, 2003)
